Laboratory results from PubChem BioAssay (NCI).
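A five-concentration, 48-hour dose response in 96-well plates underlies each endpoint, interpolated linearly between surrounding concentrations. Here, GI50 denotes the concentration required for 50% inhibition of growth. TGI marks complete inhibition of growth.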

Columns and labels:
Assay in all cases: NCI anticancer screen, dose series, 48 h
ACHN renal = tested on: ACHN renal
CCRF-CEM leukemia = tested on: CCRF-CEM leukemia
COLO 205 colon = tested on: COLO 205 colon
HOP-62 NSCLC = tested on: HOP-62 NSCLC
MDA-MB-231 breast = tested on: MDA-MB-231 breast
NCI-H23 lung = tested on: NCI-H23 lung
OVCAR-4 ovarian = tested on: OVCAR-4 ovarian
SK-MEL-28 melanoma = tested on: SK-MEL-28 melanoma
SN12C renal = tested on: SN12C renal
U251 CNS = tested on: U251 CNS

Compound	TGI (ACHN renal)	TGI (CCRF-CEM leukemia)	TGI (COLO 205 colon)	TGI (HOP-62 NSCLC)	TGI (MDA-MB-231 breast)	TGI (NCI-H23 lung)	TGI (OVCAR-4 ovarian)	TGI (SK-MEL-28 melanoma)	TGI (SN12C renal)	TGI (U251 CNS)	GI50 (ACHN renal)	GI50 (CCRF-CEM leukemia)	GI50 (HOP-62 NSCLC)	GI50 (MDA-MB-231 breast)	GI50 (COLO 205 colon)	GI50 (NCI-H23 lung)	GI50 (OVCAR-4 ovarian)	GI50 (SK-MEL-28 melanoma)	GI50 (SN12C renal)	GI50 (U251 CNS)
CCOC(=O)c1sc2nc(SC)nc(Nc3ccc4c(c3)OCCO4)c2c1N	19.8 µM	> 100 µM	> 100 µM	29.5 µM	25.9 µM	36.5 µM	30.8 µM	> 100 µM	29.9 µM	21.2 µM										
COc1ccc2c(c1)c(-c1nc(-c3c[nH]c4ncccc34)cs1)cn2CCCCN1CCCCC1	3.04 µM	3.5 µM		2.95 µM	3.08 µM						1.66 µM	1.83 µM	1.48 µM	1.61 µM						
Nc1nc(SCc2ccccc2Cl)c2[nH]cnc2n1	> 100 µM	> 100 µM	> 100 µM	> 100 µM		> 100 µM		> 100 µM	> 100 µM	> 100 µM										
CNC(C)C(O)c1ccc2oc3cc(=O)c4ccccc4c-3nc2c1 (configuration not stated)	57.9 µM	47 µM	> 100 µM	18.1 µM	> 100 µM	> 100 µM	36.6 µM	27.6 µM	25.1 µM	22.4 µM										
COc1ccc(C2COc3c(ccc(O)c3C)C2)cc1OC (configuration not stated)		> 200 µM	166 µM	> 200 µM		> 200 µM	> 200 µM	> 196 µM	> 200 µM	> 200 µM										
CCCn1cnc2c(SCc3ccc(Cl)cc3)nc(N)nc21	33.8 µM	> 100 µM		44.4 µM	60.1 µM	> 100 µM	> 100 µM	83.4 µM	83.3 µM	74.5 µM										
C=CCCC1(C)CCCNC1=S (configuration not stated)	> 100 µM	> 100 µM	> 100 µM	> 100 µM		> 100 µM	> 100 µM	> 100 µM	> 100 µM	> 100 µM										
CN(C)CCNC(=O)c1cccc2[nH]c(-c3ccccn3)nc12		> 100 µM	33.6 µM	> 90.8 µM		> 100 µM	> 78.6 µM	> 58 µM	> 100 µM	> 100 µM										
Cc1nc2ccc(S(=O)(=O)Nc3nccs3)cc2c(=O)n1NS(=O)(=O)c1nccs1	> 100 µM	> 100 µM	> 100 µM	> 100 µM	> 100 µM	> 100 µM	> 100 µM	> 100 µM	> 100 µM	> 100 µM										
COc1ccc(/C=N/n2cnc3c(c2=O)SC(=C(C#N)C#N)N3c2ccccc2)cc1	> 100 µM	> 100 µM	> 100 µM	> 100 µM		> 100 µM		> 100 µM		> 100 µM										
O=C(N[C@@H](Cc1coc2ccccc12)B(O)O)[C@@H]1C[C@H]2CC[C@@H]1O2	> 100 µM	> 100 µM	> 100 µM	43.6 µM	> 100 µM	> 100 µM	> 100 µM	> 100 µM	> 100 µM	> 100 µM	1.93 µM	1.2 µM	3.65 µM	11.7 µM	23.1 µM	9.18 µM	7.36 µM	4.5 µM	9.24 µM	17.8 µM
